Laboratory results reported in patent US7160916B2, “Method of increasing bone density or treating osteoporosis” (Yung Shin Pharmaceutical Ind. Co., Ltd., priority 2003, dated 2007).

Key:
osteoclast precursors = experiment: Osteoclastogenesis (TRAP-positive multinucleated cells); assay type: cell-based, rat; details: M-CSF 20 ng/ml and sRANKL 50 ng/ml, 8 days
Method: Osteoclastogenesis: Bone marrow cells were prepared by removing femurs from 6–8-week-old SD rats and flushing the bone marrow cavity with DMEM which was supplemented with 20 mM HEPES and 10% heat-inactivated FCS, 2 mM-glutamine, penicillin (100 U/ml) and streptomycin (100 μg/ml). After 24 hr, the non-adherent cells (hematopoietic cells) were collected and used as osteoclast precursors. The cells were seeded at 1×10^6 cells/well (0.5 ml) in 24-well plates in the presence of human recombinant soluble RANKL (50 ng/ml, Peprotech EC Ltd., London, United Kingdom) and murine M-CSF (20 ng/ml, Genzyme, Cambridge, Mass.). The culture medium was changed every 3 days. After 8˜10 days, osteoclast formation was confirmed by an assay of tartrate-resistant acid phosphatase (TRAP) (Kotake et al., 1999). In brief, the adherent cells were fixed with 10% formaldehyde in phosphate-buffered saline for 3 min. After treatment with ethanol/acetone (50:50 v/v) for 1 min, the cell surface was air dried and incubated for 10 min at room temperature in an acetate buffer (0.1 M sodium acetate, pH 5.0) containing 0.01% naphthol AS-MX phosphate (Sigma) and 0.03% fast red violet LB salt (Sigmna) in the presence of 50 mM sodium tartrate. Osteoclast-like TRAP-positive cells in each well were scored by counting the number of TRAP-positive and multinucleated cells containing more than three nuclei.

cultured osteoblasts = experiment: Collagen synthesis (4-hydroxyproline content); assay type: cell-based, rat; details: only at a higher concentration of 10 μM
Method: von Kossa staining: Osteoblasts were cultured in DMEM containing 50 μg/ml vitamin C and 10 mM β-glycerophosphate for 2 weeks and the medium was changed every 3 days. To examine nodule formation, the cells were fixed in 4% paraformaldehyde for 10 min, rinsed with water, stained with 1% silver nitrate, placed under a UV lamp for 30 min and rinsed with water before treating with 5% sodium thiosulfate for 2 min. The cells were then washed twice with water and counterstained with 1% Safranin-O to visualize the matrix. The number of nodules formed per well was counted under a light microscope. Collagen synthesis was determined by measuring the 4-hydroxyproline content in cultured osteoblasts. Cells cultured in DMEM containing 50 μg/ml vitamin C and 10 mM β-glycerophosphate for 2 weeks were hydrolyzed in 6N HCl for 16 h at 116° C. After lyophilizing and reconstituting a lysate in distilled water, the amount of 4-hydroxyproline was determined by spectrophotometry at 550 nm as described by Berg (1982) Meth Enzymol. 82: 372–398.

SMILES: OCc1ccc(-c2nn(Cc3ccccc3)c3ccccc23)o1 [Indazole 1, 1-benzyl-3-(5′-hydroxymethyl-2′-furyl)-indazole]
- differentiation of osteoclast (osteoclast precursors): inhibited the differentiation of osteoclast in a concentration-dependent manner
- collagen synthesis (cultured osteoblasts): increased
